Reference: patent US4605641A, “Synthetic vasoactive intestinal peptide analogs” (Hoffmann-La Roche Inc., priority 1984, dated 1986)
Peptide text beside a SMILES is read from it.

Key:
[1] = tested on: guinea pig trachea smooth muscle; test: Bronchodilator (relaxant) effect on isolated guinea pig tracheal rings; assay type: cell-based; conditions: for Relative Potency: guinea pig trachea, relative to VIP = 100%; for EC50: guinea pig tracheal rings, relaxation as % of maximum response to VIP 10^-6 M, three tissues pooled, linear regression, read-out: EC50 (M), agonist activity, bronchodilator effect
From the text: The bronchodilatory effect of VIP analogs was studied in a model utilizing guinea pig trachea. Wasserman, M. A. et al. "Comparative In Vitro Tracheal Relaxant Effects of Porcine and Hen VIP" in Vasoactive Intestinal Peptide ed. Said, S.I., Raven Press (New York, 1982).
All tissues were taken from male albino guinea pigs weighing 400-600 g, anesthetized with urethane 2 g/kg i.p. After exsanguination the trachea was removed and divided into four ring segments (3 mm length). Each ring was suspended by two 30 guage stainless steel wires in a 10 ml jacket tissue bath and attached via 4-0 silk thread to a Grass force displacement transducer (model FT03C, Grass Instrument Co., Quincy, MA), for isometric recording of tension. The smooth muscle was bathed in modified Krebs solution of the following composition: NaCl, 120 mM; KCl, 4.7 mM; CaCl2, 2.5 mM; MgSO4.7H2 O; 1.2 mM; NaHCO3, 25 mM; KH2 PO4 monobasic, 1.2 mM; and dextrose, 10 mM. Tissue baths were maintained at 37.5° C. and constantly bubbled with 95% O2 and 5% CO2. Responses were recorded on an 8 channel and 4 channel Hewlett-Packard (model 7702B and 7754A, respectively) recorder (Hewlett Packard, Paramus, NJ). Tracheal rings were placed under a resting tension of 1.5 g which was determined to be at or near optimal in preliminary experiments. Frequent readjustments of tension were required during the 60 min. stabilization period which followed. Tissues were rinsed at 15 min. intervals.
(§1) Cumulative concentration response curves were obtained for each tissue by successive […] in the bath concentration of VIP or potential VIP agonists according to the method of VanRossum J. M., Arch. Int Pharmacodyn, 143, 299-330 (1963). Only one cummulative dose response curve was obtained on a single piece of tissue. To minimize variability between tissues, relaxant responses are expressed as a percentage of the maximum response obtainable to VIP (10^-6 M=100%) added at the end of the concentration response curve. Responses obtained from three tissues were pooled and EC50 values were determined by linear regression.

[2] = tested on: Human Bronchial Smooth Muscle; test: Relaxation of isolated human bronchial smooth muscle rings; assay type: cell-based; conditions: for Rel. Potency: human bronchial smooth muscle, relative to VIP (1-28) = 100%
Procedure: Human bronchial smooth muscle or intra-pulmonary arteries were obtained from surgical section or autopsy from Overlook Hospital, Summit, N.J. Airway or vascular rings were suspended by two 30 gauge stainless steel wires in a 10 ml jacket tissue bath and attached via 4-0 silk thread to a Grass forcer displacement transducer (model FT030C, Grass Instrument Co., Quincy, MA), for isometric recording of tension. The smooth muscle was bathed in modified Kreb's solution of the following composition: NaCl, 120 mM; KCl, 4.7 mM; CaCL2, 2.5 mM; MgSO4.7H2 O; 1.2 mM; NaHCO3, 25 mM; KH2 PO4 monobasic, 1.2 mM; and dextrose, 10 mM. Tissue baths were maintained at 37.5° C. and constantly bubbled with 95% O2 and 5% CO2. Responses were recorded on a 8 channel and 4 channel Hewlett-Packard (model 7702B and 7754A, respectively) recorder (Hewlett Packard, Paramus, NJ). All tissues were placed under a resting tension (airway, 1.5 g; vascular, 1 g) which was determined to be near optimal in preliminary experiments. Frequent readjustments of tension were required during the 120-180 min. stabilization period which followed. Tissues were rinsed at 15 min. intervals. Vascular tissues were primed once with phenylephrine (10^-5 M) and washed for an additional hour. Steady state contractions of vacular tissues were obtained with phenylephrine (10^-5 M) while airway tissues were precontracted with histamine (3×10^-4 M).
as §1, with “noted above.” for “J. M., Arch. Int Pharmacodyn, 143, 299-330 (1963).”, “cumulative” for “cummulative”, “were” for “are”, “papaverine (vascular, 10^-4 M=100%) or isoproterenol (airway, 10^-4” for “VIP (10^-6”, “curve. […]” for “curve.”, “four” for “three”

Row | SMILES | EC50 [1] [M] | Relative Potency [1] [%] | Rel. Potency [2] [%] | Bronchodilator / relaxant activity (in words) ([2]; human in vitro tissue, summary of Table II)
1 | CCCC[C@H](NC(=O)[C@H](CCC(N)=O)NC(=O)[C@H](CCCCN)NC(=O)[C@H](CCCNC(=N)N)NC(=O)[C@H](CC(C)C)NC(=O)[C@H](CCCNC(=N)N)NC(=O)[C@@H](NC(=O)[C@H](Cc1ccc(O)cc1)NC(=O)[C@H](CC(N)=O)NC(=O)[C@H](CC(=O)O)NC(=O)[C@@H](NC(=O)[C@H](Cc1ccccc1)NC(=O)[C@@H](NC(=O)[C@H](C)NC(=O)[C@H](CC(=O)O)NC(=O)[C@H](CO)NC(=O)[C@@H](N)Cc1c[nH]cn1)C(C)C)[C@@H](C)O)[C@@H](C)O)C(=O)N[C@@H](C)C(=O)N[C@H](C(=O)N[C@@H](CCCCN)C(=O)N[C@@H](CCCCN)C(=O)N[C@@H](Cc1ccc(O)cc1)C(=O)N[C@@H](CC(C)C)C(=O)N[C@@H](CC(N)=O)C(=O)N[C@@H](CO)C(=O)N[C@H](C(=O)N[C@@H](CC(C)C)C(=O)N[C@@H](CC(N)=O)C(N)=O)[C@@H](C)CC)C(C)C [(Nle^17)--VIP, (Nle^17)VIP] | 6.4e-09 | 156 | 215 | 
2 | CC[C@H](C)[C@H](NC(=O)[C@H](CO)NC(=O)[C@H](CC(N)=O)NC(=O)[C@H](CC(C)C)NC(=O)[C@H](Cc1ccc(O)cc1)NC(=O)[C@H](CCCCN)NC(=O)[C@H](CCCCN)NC(=O)[C@@H](NC(=O)[C@H](C)NC(=O)[C@H](CCSC)NC(=O)[C@H](CCC(N)=O)NC(=O)[C@H](CCCCN)NC(=O)[C@H](CCCNC(=N)N)NC(=O)[C@H](CC(C)C)NC(=O)[C@H](CCCNC(=N)N)NC(=O)[C@@H](NC(=O)[C@H](Cc1ccc(O)cc1)NC(=O)[C@H](CC(N)=O)NC(=O)[C@H](CC(=O)O)NC(=O)[C@@H](NC(=O)[C@H](Cc1ccccc1)NC(=O)[C@@H](NC(=O)[C@H](C)NC(=O)[C@H](CC(=O)O)NC(=O)[C@H](CO)NC(=O)[C@@H](N)Cc1c[nH]cn1)C(C)C)[C@@H](C)O)[C@@H](C)O)C(C)C)C(=O)N[C@@H](CC(C)C)C(=O)N[C@@H](CC(N)=O)C(N)=O [VIP, Vasoactive intestinal peptide] | 1e-08 | 100 | 100 | weak relaxant
3 | CCCC[C@H](NC(=O)[C@H](CCC(N)=O)NC(=O)[C@H](CCCCN)NC(=O)[C@H](CCCNC(=N)N)NC(=O)[C@H](CC(C)C)NC(=O)[C@H](CCCCN)NC(=O)[C@@H](NC(=O)[C@H](Cc1ccc(O)cc1)NC(=O)[C@H](CC(N)=O)NC(=O)[C@H](CC(=O)O)NC(=O)[C@@H](NC(=O)[C@H](Cc1ccccc1)NC(=O)[C@@H](NC(=O)[C@H](C)NC(=O)[C@H](CC(=O)O)NC(=O)[C@H](CO)NC(=O)[C@@H](N)Cc1c[nH]cn1)C(C)C)[C@@H](C)O)[C@@H](C)O)C(=O)N[C@@H](C)C(=O)N[C@H](C(=O)N[C@@H](CCCCN)C(=O)N[C@@H](CCCCN)C(=O)N[C@@H](Cc1ccc(O)cc1)C(=O)N[C@@H](CC(C)C)C(=O)N[C@@H](CC(N)=O)C(=O)N[C@@H](CO)C(=O)N[C@H](C(=O)N[C@@H](CC(C)C)C(=O)N[C@@H](CC(N)=O)C(N)=O)[C@@H](C)CC)C(C)C [(Lys^12, Nle^17)--VIP, (Lys^12, Nle^17)-VIP] (HELM PEPTIDE1{H.S.D.A.V.F.T.D.N.Y.T.K.L.R.K.Q.[Nle].A.V.K.K.Y.L.N.S.I.L.N.[am]}$$$$V2.0) | 3.8e-09 | 263 | 165 | 

More lines, main results first:

Row | EC50 [1] [M] | SMILES | Relative Potency [1] [%] | Rel. Potency [2] [%] | Bronchodilator / relaxant activity (in words) ([2]; human in vitro tissue, summary of Table II)
4 | 9e-09 | CCCC[C@H](NC(=O)[C@H](CCC(N)=O)NC(=O)[C@H](CCCCN)NC(=O)[C@H](CCCNC(=N)N)NC(=O)[C@H](CC(C)C)NC(=O)[C@H](CCCNC(=N)N)NC(=O)[C@@H](NC(=O)[C@H](Cc1ccc(O)cc1)NC(=O)[C@H](CC(N)=O)NC(=O)[C@H](CC(=O)O)NC(=O)[C@@H](NC(=O)[C@H](Cc1ccccc1)NC(=O)[C@@H](NC(=O)[C@H](C)NC(=O)[C@H](CC(=O)O)NC(=O)[C@H](CO)NC(=O)[C@H](Cc1c[nH]cn1)NC(C)=O)C(C)C)[C@@H](C)O)[C@@H](C)O)C(=O)N[C@@H](C)C(=O)N[C@H](C(=O)N[C@@H](CCCCN)C(=O)N[C@@H](CCCCN)C(=O)N[C@@H](Cc1ccc(O)cc1)C(=O)N[C@@H](CC(C)C)C(=O)N[C@@H](CC(N)=O)C(=O)N[C@@H](CO)C(=O)N[C@H](C(=O)N[C@@H](CC(C)C)C(=O)N[C@@H](CC(N)=O)C(N)=O)[C@@H](C)CC)C(C)C [Ac--(Nle^17)--VIP, Ac-(Nle^17)VIP] | 111 | 2800 | 
5 | 5e-09 | CCCC[C@H](NC(=O)[C@H](CCC(N)=O)NC(=O)[C@H](CCCCN)NC(=O)[C@H](CCCNC(=N)N)NC(=O)[C@H](CC(C)C)NC(=O)[C@H](CCCN)NC(=O)[C@@H](NC(=O)[C@H](Cc1ccc(O)cc1)NC(=O)[C@H](CC(N)=O)NC(=O)[C@H](CC(=O)O)NC(=O)[C@@H](NC(=O)[C@H](Cc1ccccc1)NC(=O)[C@@H](NC(=O)[C@H](C)NC(=O)[C@H](CC(=O)O)NC(=O)[C@H](CO)NC(=O)[C@@H](N)Cc1c[nH]cn1)C(C)C)[C@@H](C)O)[C@@H](C)O)C(=O)N[C@@H](C)C(=O)N[C@H](C(=O)N[C@@H](CCCCN)C(=O)N[C@@H](CCCCN)C(=O)N[C@@H](Cc1ccc(O)cc1)C(=O)N[C@@H](CC(C)C)C(=O)N[C@@H](CC(N)=O)C(=O)N[C@@H](CO)C(=O)N[C@H](C(=O)N[C@@H](CC(C)C)C(=O)N[C@@H](CC(N)=O)C(N)=O)[C@@H](C)CC)C(C)C [(Orn^12, Nle^17)--VIP, (Orn^12, Nle^17)VIP] | 200 | 195 | 
